From patent US7935503B2, “Methods for producing and using polymyxins” (University of Georgia Research Foundation, Inc., priority 2007, dated 2011)

How the values were obtained:
Assay type in all cases: cell-based
[1] = test system: Salmonella typhimurium ATCC 29629; assay: Minimum inhibitory concentration (NCCLS dilution method), Salmonella typhimurium [sic]; settings: Salmonella typhimurium ATCC 29629 (second line, r16), Gram negative; triplicate, identical values
Description: (§1) Bacterial Strains and Culture Conditions. Paenibacillus amylolyticus C27, C25, C26, C28, and C30 were isolated from the hindgut extract of a Tipula abdominalis larva as described in Cook et al. (2007, Appl. Environ. Microbiol., 73:5683-5686), and grown aerobically at 28° C. on tryptic soy agar (TSA) and in tryptic soy both (TSB) or Davis minimal media broth (MM) (Atlas, 1993, Handbook of Microbiological Media, Boca Raton, Fla., CRC Press, Inc.). Escherichia coli ATCC 11303 was grown aerobically at 37° C. on Luria-Bertani agar or in broth. Enterococcus faecalis ATCC 19433, Pseudomonas aeruginosa ATCC 27853, Salmonella typhimurium ATCC 29629, Shigella fexneri ATCC 9199, Bacillus subtilis ATCC 6633, Staphylococcus aureus ATCC 6538, and Streptococcus pyogenes ATCC 19615 were grown aerobically at 37° C. on TSA.
Minimum inhibitory concentrations. Both P. amylolyticus C27 peaks with antibacterial activity from HPLC purification of 500 mL minimal media culture were combined. […]

[2] = test system: Salmonella typhimurium ATCC 29629; assay: Minimum inhibitory concentration (NCCLS dilution method); settings: Salmonella typhimurium ATCC 29629 (first line, r15), Gram negative; triplicate, identical values
Description: as §1
(§2) Minimum inhibitory concentrations. Both P. amylolyticus C27 peaks with antibacterial activity from HPLC purification of 500 mL minimal media culture were combined. For analysis of polymyxin B (Sigma-Aldrich, St. Louis, Mo.), polymyxin E (Sigma-Aldrich, St. Louis, Mo.), and the P. amylolyticus C27 antibacterials, MIC determinations were performed according to the National Committee for Clinical Laboratory Standards (NCCLS) (Table 2) (NCCLS, 2003, Methods for dilution antimicrobial susceptibility tests for bacteria that grow aerobically; approved standard—sixth edition. NCCLS document M7-A6. Wayne, Pa., National Committee for Clinical Laboratory Standards).

[3] = test system: Staphylococcus aureus ATCC 6538; assay: as above; settings: Staphylococcus aureus ATCC 6538, Gram positive; triplicate, identical values
Description: as §1, §2

[4] = test system: Pseudomonas aeruginosa ATCC 27853; assay: as above; settings: Pseudomonas aeruginosa ATCC 27853, Gram negative; triplicate, identical values
Description: as §1, §2

[5] = test system: Escherichia coli ATCC 11303; assay: as above; settings: Escherichia coli ATCC 11303, Gram negative; triplicate, identical values
Description: as §1, §2

[6] = test system: Enterococcus faecalis ATCC 19433; assay: as above; settings: Enterococcus faecalis ATCC 19433, Gram positive; triplicate, identical values
Description: as §1, §2

[7] = test system: Streptococcus pyogenes ATCC 19615; assay: as above; settings: Streptococcus pyogenes ATCC 19615, Gram positive; triplicate, identical values
Description: as §1, §2

Substance	Minimum inhibitory concentration [1] [mg/L]	Minimum inhibitory concentration [2] [mg/L]	Minimum inhibitory concentration [3] [mg/L]	Minimum inhibitory concentration [4] [mg/L]	Minimum inhibitory concentration [5] [mg/L]	Minimum inhibitory concentration [6] [mg/L]	Minimum inhibitory concentration [7] [mg/L]
polymyxin E	2	1	128	4	2	>128	>128
polymyxin B	4	4	32	4	2	>128	32
